Experimental data published in patent US10391201B2, “Gene therapy” (Ospedale San Raffaele S.r.l., priority 2014, dated 2019).

How the values were obtained:
[1] = test system: monocyte-derived macrophages (MDM); assay: SINLV-GFP lentiviral transduction of monocyte-derived macrophages; type: cell-based, human; details: MOI 1, 10 μM CsA or 10 μg/mL rapamycin, FACS 5 days
Method: (§1) CD4^+ T cells were activated in RPMI, supplemented with 10% FBS, penicillin (100 IU/mL), streptomycin (100 μg/mL), 2% glutamine, phytohaemagglutanin (PHA) (2 μg/mL, Roche) and IL-2 (300 IU/mL, Novartis) for three days and maintained in RPMI supplemented with 10% FBS, penicillin (100 IU/mL), streptomycin (100 μg/mL), 2% glutamine and IL-2 (300 UI/mL). Monocyte-derived macrophages (MDM) were differentiated from isolated CD14^+ monocytes in DMEM supplemented with 10% FBS, penicillin (100 IU/mL), streptomycin (100 μg/mL), 2% glutamine and 5% human serum AB (Lonza) for seven days.
(§2) Human CB and BM-derived haematopoietic stem/progenitor cells (HSPC) were cultured in serum-free StemSpan medium (StemCell Technologies) supplemented with 100 ng/mL recombinant human stem cell factor (rhSCF), 20 ng/mL recombinant human thrombopoietin (rhTPO), 100 ng/mL recombinant human Flt3 ligand (rhFlt3) and 20 ng/mL recombinant human IL6 (rhIL6) (all from Peprotech) 16 to 24 hours prior to transduction. […] After transduction, cells were washed and maintained serum-free StemSpan supplemented with cytokines as above until the reading of GFP-positive (GFP+) cells by FACS. […]
(§3) GFP expression in transduced cells was measured 5-7 days post-transduction. […]

[2] = test system: CD4+ T cells; assay: SINLV-GFP lentiviral transduction of activated CD4+ T cells; type: cell-based, human
Method: as §1, §2, §3

CO[C@H]1C[C@@H]2CC[C@@H](C)[C@@](O)(O2)C(=O)C(=O)N2CCCC[C@H]2C(=O)O[C@H]([C@H](C)C[C@@H]2CC[C@@H](O)[C@H](OC)C2)CC(=O)[C@H](C)/C=C(\C)[C@@H](O)[C@@H](OC)C(=O)[C@H](C)C[C@H](C)/C=C/C=C/C=C/1C [rapamycin, Rapamycin]
decrease in GFP+ cells (transduction) [1]: 2.8 fold | impact on transduction among the different CA mutants ([2]; CA mutant SINLVs MOI 1): did not vary | impact on LV transduction efficiency (in words) ([2]; MOI 1, 20 μm FK506 or 10 μg/mL rapamycin): a similar trend was observed
